Assay results from paper doi:10.1101/2024.06.04.597308v2 (biorxiv, 2024).
Residue numbers refer to the chain shown, from its start.

Experiments:
Experiment in all cases: isothermal titration calorimetry
Assay type in all cases: binding
[1] = target: T1, 3β-OH-Δ^5-6-cholesterol-5β-reductase (5βChR); putative cholesterol dehydrogenase (Limosilactobacillus fermentum, UniProt A0ABF7R4H0, F190A); details: NADP+ titration; C-terminal substrate-pocket mutant
T1 sequence (A0ABF7R4H0 1-249 F190A): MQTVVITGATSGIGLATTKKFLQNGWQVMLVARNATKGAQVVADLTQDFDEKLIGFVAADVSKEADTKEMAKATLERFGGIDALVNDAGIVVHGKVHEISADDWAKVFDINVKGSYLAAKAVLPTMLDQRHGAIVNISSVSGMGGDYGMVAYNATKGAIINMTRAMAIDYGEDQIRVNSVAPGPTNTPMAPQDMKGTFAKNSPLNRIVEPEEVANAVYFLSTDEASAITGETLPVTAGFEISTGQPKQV

[2] = target: T2, 3β-OH-Δ^5-6-cholesterol-5β-reductase (5βChR); putative cholesterol dehydrogenase (Limosilactobacillus fermentum, UniProt A0ABF7R4H0, M189A); details: NADP+ titration; C-terminal substrate-pocket mutant
T2 sequence (A0ABF7R4H0 1-249 M189A): T1 sequence (A0ABF7R4H0 1-249 F190A) with M189A, A190F

[3] = target: T3, 3β-OH-Δ^5-6-cholesterol-5β-reductase (5βChR); putative cholesterol dehydrogenase (Limosilactobacillus fermentum, UniProt A0ABF7R4H0, T187A); details: NADP+ titration; C-terminal substrate-pocket mutant
T3 sequence (A0ABF7R4H0 1-249 T187A): T1 sequence (A0ABF7R4H0 1-249 F190A) with T187A, A190F

[4] = target: T4, 3β-OH-Δ^5-6-cholesterol-5β-reductase (5βChR); putative cholesterol dehydrogenase (Limosilactobacillus fermentum, UniProt A0ABF7R4H0, Y152A); details: catalytic tetrad mutant
T4 sequence (A0ABF7R4H0 1-249 Y152A): T1 sequence (A0ABF7R4H0 1-249 F190A) with Y152A, A190F

[5] = target: T5, 3β-OH-Δ^5-6-cholesterol-5β-reductase (5βChR); putative cholesterol dehydrogenase (Limosilactobacillus fermentum, UniProt A0ABF7R4H0, S139A); details: catalytic tetrad mutant
T5 sequence (A0ABF7R4H0 1-249 S139A): T1 sequence (A0ABF7R4H0 1-249 F190A) with S139A, A190F

Compound | Kd [1] [µM] | Kd [2] [µM] | Kd [3] [µM] | Kd [4] [µM] | Kd [5] [µM]
NC(=O)c1ccc[n+]([C@@H]2O[C@H](COP(=O)(O)OP(=O)(O)OC[C@H]3O[C@@H](n4cnc5c(N)ncnc54)[C@H](OP(=O)(O)O)[C@@H]3O)[C@@H](O)[C@H]2O)c1 [NADP^+] | 5.2 | 7.49 | 8.77 | – | –
CC(C)CCC[C@@H](C)[C@H]1CC[C@H]2[C@@H]3CC=C4C[C@@H](O)CC[C@]4(C)[C@H]3CC[C@]12C [cholesterol] | – | – | – | 4.44 | 24.8
